The source of these data is patent US20230087118A1, “IMIDAZO[1,2-a][sequence] DERIVATIVES AND THEIR USE IN THE TREATMENT OF DISEASE” (priority 2019, published 2023).

SMILES strings stand for the structures. pIC50: −log10 of the molar value.

In the experiment the target is T1, IRAK4 (Homo sapiens, UniProt Q9NWZ3).
T1 sequence (Q9NWZ3 1-460): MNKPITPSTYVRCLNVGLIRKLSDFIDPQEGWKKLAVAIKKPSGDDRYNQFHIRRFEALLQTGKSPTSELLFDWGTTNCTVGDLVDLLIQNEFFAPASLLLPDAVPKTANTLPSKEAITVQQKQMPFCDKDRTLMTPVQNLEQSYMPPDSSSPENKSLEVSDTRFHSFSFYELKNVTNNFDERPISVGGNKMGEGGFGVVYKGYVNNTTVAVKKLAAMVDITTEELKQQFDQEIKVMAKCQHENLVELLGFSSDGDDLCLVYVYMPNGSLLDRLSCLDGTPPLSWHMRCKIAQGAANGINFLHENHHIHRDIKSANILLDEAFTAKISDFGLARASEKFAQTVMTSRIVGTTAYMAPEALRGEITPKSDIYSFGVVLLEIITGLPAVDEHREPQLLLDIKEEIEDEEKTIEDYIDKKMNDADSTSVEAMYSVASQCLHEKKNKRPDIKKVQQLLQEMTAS
Nature of the experiment: biochemical.
Consider `CCOc1cc(C(=O)Nc2cccc(C(F)F)n2)cn2cc([C@@H]3CCCOC3)nc12` (single isomer, unassigned) [Example 54], for which the pIC50 (as a rule, the IC50 on a negative log10 scale, so that one unit is a factor of ten) was 8.19.
Turning to `CCOc1cc(C(=O)Nc2cccc(C(F)F)n2)cn2cc([C@H]3CCCOC3)nc12` (single isomer, unassigned) [Example 55], the pIC50 was 7.87.
`CCOc1cc2nc([C@H]3C[C@@H]3F)cn2cc1C(=O)Nc1cccc(OC)n1` (single isomer, unassigned) [Example 66] showed a pIC50 of 7.60.
In the case of `CCOc1cc2nc([C@@H]3C[C@H]3F)cn2cc1C(=O)Nc1cccc(OC)n1` (single isomer, unassigned) [Example 67] it was 7.40; in that of `CCOc1cc2nc([C@@H]3CC3(F)F)cn2cc1C(=O)Nc1cccc(OC)n1` (single isomer, unassigned) [Example 69], 7.35; in that of `COc1nc(C(=O)Nc2cccc(C(F)(F)F)n2)cn2cc(C[C@@H]3CCOC3)nc12` (single isomer, unassigned) [Example 70], 7.77.
To `COc1nc(C(=O)Nc2cccc(C(F)(F)F)n2)cn2cc(C[C@H]3CCOC3)nc12` (single isomer, unassigned) [Example 71] belongs 7.51; to `CC(C)Oc1nc2nc([C@@]34CC[C@@](C)(C3)OC4)cn2cc1C(=O)Nc1cccc(C(F)F)n1` (single isomer, unassigned) [Example 576], 9.70.
`CC(C)Oc1nc2nc([C@]34CC[C@](C)(C3)OC4)cn2cc1C(=O)Nc1cccc(C(F)F)n1` (single isomer, unassigned) [Example 577] showed a pIC50 of 9.70.
`COc1ncccc1NC(=O)c1cn2cc([C@@]34CC[C@@](C)(C3)OC4)nc2nc1OC(C)C` (single isomer, unassigned) [Example 578] had a pIC50 of 9.70.
`COc1ncccc1NC(=O)c1cn2cc([C@]34CC[C@](C)(C3)OC4)nc2nc1OC(C)C` (single isomer, unassigned) [Example 579] had a pIC50 of 9.40.
The molecule `CC(C)Oc1cc2nc([C@@]34CC[C@@H](C3)OC4)cn2cc1C(=O)Nc1ccn(C)n1` (single isomer, unassigned) [Example 580] had a pIC50 of 8.77.
`CC(C)Oc1cc2nc([C@]34CC[C@H](C3)OC4)cn2cc1C(=O)Nc1ccn(C)n1` (single isomer, unassigned) [Example 581] showed a negative-log IC50 (pIC50) of 8.43.
Turning to `CC(C)Oc1cc2nc([C@@]34CC[C@@H](C3)OC4)cn2cc1C(=O)Nc1cnn2cccnc12` (single isomer, unassigned) [Example 582], the pIC50 is 9.22.
Molecule `CC(C)Oc1cc2nc([C@]34CC[C@H](C3)OC4)cn2cc1C(=O)Nc1cnn2cccnc12` (single isomer, unassigned) [Example 583] gave a negative logarithm of the IC50 (pIC50) of 9.10.
`C[C@@]12CC[C@@](c3cn4cc(C(=O)Nc5cccc(C(F)F)n5)cc(OC(F)F)c4n3)(CO1)C2` (single isomer, unassigned) [Example 584] showed a pIC50 of 7.81.
Consider `C[C@]12CC[C@](c3cn4cc(C(=O)Nc5cccc(C(F)F)n5)cc(OC(F)F)c4n3)(CO1)C2` (single isomer, unassigned) [Example 585], for which the pIC50 is 7.94.
To `COc1ncccc1NC(=O)c1cn2cc([C@]34CC[C@](C)(C3)OC4)nc2c(OC)n1` (single isomer, unassigned) [Example 586] belongs 8.70.
To `COc1ncccc1NC(=O)c1cn2cc([C@@]34CC[C@@](C)(C3)OC4)nc2c(OC)n1` (single isomer, unassigned) [Example 587] belongs 8.49.
`CC(C)Oc1nc(C(=O)Nc2cccc(C(F)F)n2)cn2cc([C@@]34CC[C@@](C)(C3)OC4)nc12` (single isomer, unassigned) [Example 588]: the pIC50 is 8.82.
The molecule `CC(C)Oc1nc(C(=O)Nc2cccc(C(F)F)n2)cn2cc([C@]34CC[C@](C)(C3)OC4)nc12` (single isomer, unassigned) [Example 589] showed a pIC50 of 8.62.
As for `CC(C)Oc1cc2nc([C@@]34CC[C@@H](C3)OC4)cn2cc1C(=O)Nc1cccc(C(F)F)n1` (single isomer, unassigned) [Example 590], the pIC50 was 10.00.
`CC(C)Oc1cc2nc([C@]34CC[C@H](C3)OC4)cn2cc1C(=O)Nc1cccc(C(F)F)n1` (single isomer, unassigned) [Example 591] had a pIC50 of 10.00.
For the molecule `CC(C)Oc1nc(C(=O)Nc2ccn(C)n2)cn2cc([C@@]34CC[C@@](C)(C3)OC4)nc12` (single isomer, unassigned) [Example 592], the pIC50 was 8.47.
To `CC(C)Oc1nc(C(=O)Nc2ccn(C)n2)cn2cc([C@]34CC[C@](C)(C3)OC4)nc12` (single isomer, unassigned) [Example 593] belongs 8.19; to `CCOc1nc(C(=O)Nc2cc(F)cnc2OC)cn2cc([C@@H]3CCCOC3)nc12` (single isomer, unassigned) [Example 594], 8.25; to `CCOc1nc(C(=O)Nc2cc(F)cnc2OC)cn2cc([C@H]3CCCOC3)nc12` (single isomer, unassigned) [Example 595], 7.89.
`CCOc1nc(C(=O)Nc2cc(F)cn(C)c2=O)cn2cc([C@@H]3CCCOC3)nc12` (single isomer, unassigned) [Example 596] gave a pIC50 of 8.20.
In the case of `CCOc1nc(C(=O)Nc2cc(F)cn(C)c2=O)cn2cc([C@H]3CCCOC3)nc12` (single isomer, unassigned) [Example 597] it was 7.85; in that of `CCOc1nc(C(=O)Nc2cccnc2OC)cn2cc([C@H]3CCOC3)nc12` (single isomer, unassigned) [Example 598], 8.39.
Consider `CCOc1nc(C(=O)Nc2cccnc2OC)cn2cc([C@@H]3CCOC3)nc12` (single isomer, unassigned) [Example 599], for which the negative logarithm of the IC50 (pIC50) is 8.25.
To `CCOc1nc(C(=O)Nc2cccc(C(F)F)n2)cn2cc([C@]34CC[C@](C)(C3)OC4)nc12` (single isomer, unassigned) [Example 600] belongs 8.92.
In turn, `CCOc1nc(C(=O)Nc2cccc(C(F)F)n2)cn2cc([C@@]34CC[C@@](C)(C3)OC4)nc12` (single isomer, unassigned) [Example 601] gave a pIC50 of 8.72.
In turn, `CC(C)Oc1cc2nc([C@]34CC[C@](C)(C3)OC4)cn2cc1C(=O)Nc1cc(F)n(C)n1` (single isomer, unassigned) [Example 602] gave a pIC50 of 8.29.
`CC(C)Oc1cc2nc([C@@]34CC[C@@](C)(C3)OC4)cn2cc1C(=O)Nc1cc(F)n(C)n1` (single isomer, unassigned) [Example 603]: the pIC50 is 8.28.
To `CCOc1nc(C(=O)Nc2cccnc2OC)cn2cc([C@]34CC[C@](C)(C3)OC4)nc12` (single isomer, unassigned) [Example 604] belongs 9.52; to `CCOc1nc(C(=O)Nc2cccnc2OC)cn2cc([C@@]34CC[C@@](C)(C3)OC4)nc12` (single isomer, unassigned) [Example 605], 9.40; to `CC(C)Oc1cc2nc([C@@]34CC[C@@](C)(C3)OC4)cn2cc1C(=O)Nc1ccn(C)n1` (single isomer, unassigned) [Example 606], 8.64.
For `CC(C)Oc1cc2nc([C@]34CC[C@](C)(C3)OC4)cn2cc1C(=O)Nc1ccn(C)n1` (single isomer, unassigned) [Example 607], the negative-log IC50 (pIC50) is 8.51.
To `CC(C)Oc1cc2nc([C@]34CC[C@](C)(C3)OC4)cn2cc1C(=O)Nc1cccc(C(F)F)n1` (single isomer, unassigned) [Example 608] belongs 10.00; to `CC(C)Oc1cc2nc([C@@]34CC[C@@](C)(C3)OC4)cn2cc1C(=O)Nc1cccc(C(F)F)n1` (single isomer, unassigned) [Example 609], 10.00.
In the case of `Cn1ccc(NC(=O)c2cn3cc([C@@]45CC[C@@](C)(C4)OC5)nc3cc2OC2CCC2)n1` (single isomer, unassigned) [Example 610] it was 9.10; in that of `Cn1ccc(NC(=O)c2cn3cc([C@]45CC[C@](C)(C4)OC5)nc3cc2OC2CCC2)n1` (single isomer, unassigned) [Example 611], 8.89.
The molecule `CC(C)Oc1nc2nc([C@@]34CC[C@@](C)(C3)OC4)cn2cc1C(=O)Nc1cnn2cccnc12` (single isomer, unassigned) [Example 612] gave a pIC50 of 9.40.
On to `CC(C)Oc1nc2nc([C@]34CC[C@](C)(C3)OC4)cn2cc1C(=O)Nc1cnn2cccnc12` (single isomer, unassigned) [Example 613], for which the negative-log IC50 (pIC50) was 9.30.
As for `CC(C)Oc1cc2nc([C@]34CC[C@](C)(C3)OC4)cn2cc1C(=O)Nc1cnn2cccnc12` (single isomer, unassigned) [Example 614], the negative logarithm of the IC50 (pIC50) is 9.70.
In the case of `CC(C)Oc1cc2nc([C@@]34CC[C@@](C)(C3)OC4)cn2cc1C(=O)Nc1cnn2cccnc12` (single isomer, unassigned) [Example 615] it was 9.70; in that of `Cc1cnc2c(NC(=O)c3cn4cc([C@@]56CC[C@@](C)(C5)OC6)nc4nc3OC(C)C)cnn2c1` (single isomer, unassigned) [Example 616], 9.70; in that of `Cc1cnc2c(NC(=O)c3cn4cc([C@]56CC[C@](C)(C5)OC6)nc4nc3OC(C)C)cnn2c1` (single isomer, unassigned) [Example 617], 9.22.
As to `C[C@@H](Oc1cc2nc(C34COC(C)(C3)C4)cn2cc1C(=O)Nc1cccc(C(F)F)n1)C(F)(F)F` (single isomer, unassigned) [Example 618], the pIC50 was 9.22.
